From ChEMBL document CHEMBL4376892, “Identification of Parthenolide Dimers as Activators of Pyruvate Kinase M2 in Xenografts of Glioblastoma Multiforme in Vivo” (J Med Chem, 2020)
Activity calls are given as the source filed them. The rule behind the calls is not given here.

Tests used:
[1] = Antiproliferative activity against human SHG44 cells assessed as reduction in cell viability after 72 hrs by MTT assay; format: functional, cell-based; conditions: SHG-44, 72 h
[2] = tested on: C6; assay: Antiproliferative activity against rat C6 cells assessed as reduction in cell viability after 72 hrs by MTT assay; format: functional, cell-based; conditions: C6, 72 h
[3] = tested on: NIH3T3; assay: Cytotoxicity against mouse 3T3 cells assessed as reduction in cell viability after 72 hrs by MTT assay; format: cell-based; conditions: NIH3T3, 72 h
[4] = tested on: U-251; assay: Antiproliferative activity against human U251 cells assessed as reduction in cell viability after 72 hrs by MTT assay; format: functional, cell-based; conditions: U-251, 72 h
[5] = tested on: SF-126; assay: Antiproliferative activity against human SF126 cells assessed as reduction in cell viability after 72 hrs by MTT assay; format: functional, cell-based; conditions: SF-126, 72 h
[6] = tested on: U-87 MG; assay: Antiproliferative activity against human U87 cells assessed as reduction in cell viability after 72 hrs by MTT assay; format: functional, cell-based, U-87MG ATCC
[7] = tested on: U-118-MG; assay: Antiproliferative activity against human U118MG cells assessed as reduction in cell viability after 72 hrs by MTT assay; format: functional, cell-based
[8] = target: T1, Pyruvate kinase PKM (Homo sapiens, UniProt P14618); assay: Activation of recombinant human N-terminal 6His-tagged PKM2 expressed in Escherichia coli BL21 cells after 50 mins by fluorescence based analysis
Target sequence in this assay (P14618 whole entry): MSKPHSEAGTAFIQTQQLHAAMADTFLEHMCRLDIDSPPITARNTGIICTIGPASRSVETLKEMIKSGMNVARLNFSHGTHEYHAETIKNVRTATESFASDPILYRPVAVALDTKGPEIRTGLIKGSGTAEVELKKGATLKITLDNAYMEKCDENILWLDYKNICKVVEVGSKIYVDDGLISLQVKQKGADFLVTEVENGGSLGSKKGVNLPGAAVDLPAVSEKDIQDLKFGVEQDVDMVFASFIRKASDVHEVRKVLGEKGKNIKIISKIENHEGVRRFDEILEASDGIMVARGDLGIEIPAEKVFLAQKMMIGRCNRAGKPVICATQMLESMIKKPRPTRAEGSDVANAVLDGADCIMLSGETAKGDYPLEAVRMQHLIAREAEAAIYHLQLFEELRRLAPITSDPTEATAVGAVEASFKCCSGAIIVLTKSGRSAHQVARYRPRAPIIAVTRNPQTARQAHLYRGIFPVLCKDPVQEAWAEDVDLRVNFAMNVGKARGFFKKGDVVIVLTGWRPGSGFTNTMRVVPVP

[9] = target: T1, Pyruvate kinase PKM; assay: Activation of recombinant human N-terminal 6His-tagged PKM2 expressed in Escherichia coli BL21 cells at 10 uM after 30 mins by fluorescence based analysis relative to control
Target sequence in this assay (P14618 2-531 limits assumed): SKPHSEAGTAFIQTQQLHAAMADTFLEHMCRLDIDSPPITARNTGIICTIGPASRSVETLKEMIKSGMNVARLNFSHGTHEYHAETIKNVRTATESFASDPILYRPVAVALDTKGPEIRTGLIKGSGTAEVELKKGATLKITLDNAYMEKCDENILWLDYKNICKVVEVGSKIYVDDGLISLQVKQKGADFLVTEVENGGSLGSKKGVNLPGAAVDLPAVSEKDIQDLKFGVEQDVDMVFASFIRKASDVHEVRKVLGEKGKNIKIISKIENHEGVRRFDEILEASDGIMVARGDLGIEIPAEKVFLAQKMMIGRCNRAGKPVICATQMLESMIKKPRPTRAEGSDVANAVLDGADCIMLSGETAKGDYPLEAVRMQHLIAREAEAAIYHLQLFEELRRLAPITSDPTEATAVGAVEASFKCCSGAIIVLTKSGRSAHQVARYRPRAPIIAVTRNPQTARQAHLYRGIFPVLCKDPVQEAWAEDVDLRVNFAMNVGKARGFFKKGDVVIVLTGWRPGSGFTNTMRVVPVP

[10] = tested on: Mus musculus; assay: Reduction in STAT3 gene expression in tumor of Bar b/c nude mouse xenografted with human U118MG cells at 50 mg/kg, ip adminstered every 3 days for 3 weeks; format: functional, organism-based
[11] = tested on: Mus musculus; assay: Reduction in STAT3 protein expression in tumor of Bar b/c nude mouse xenografted with human U118MG cells at 50 mg/kg, ip adminstered every 3 days for 3 weeks and measured after 20 days by Western blot analysis; format: functional, organism-based
[12] = tested on: Mus musculus; assay: Reduction in Bcl2 gene expression in tumor of Bar b/c nude mouse xenografted with human U118MG cells at 50 mg/kg, ip adminstered every 3 days for 3 weeks; format: functional, organism-based
[13] = tested on: U-118-MG; assay: Antitumor activity against human U118MG cells xenografted in Bar b/c nude mouse assessed as reduction in tumor weight at 50 mg/kg, ip adminstered twice weekly for 3 weeks and measured every 3 days for 20 days by caliper method; format: functional, organism-based
[14] = tested on: Mus musculus; assay: Increase in E-cadherin protein expression in tumor of siPKM2-treated Bar b/c nude mouse xenografted with human U118MG cells at 50 mg/kg, ip adminstered twice weekly for 3 weeks and measured after 20 days by immunohistochemical analysis; format: functional, organism-based
[15] = tested on: Mus musculus; assay: Increase in Bax protein expression in tumor of Bar b/c nude mouse xenografted with human U118MG cells at 50 mg/kg, ip adminstered every 3 days for 3 weeks and measured after 20 days by Western blot analysis; format: functional, organism-based
[16] = tested on: Mus musculus; assay: Increase in E-cadherin protein expression in tumor of Bar b/c nude mouse xenografted with human U118MG cells at 50 mg/kg, ip adminstered twice weekly for 3 weeks and measured after 20 days by immunohistochemical analysis; format: functional, organism-based
[17] = tested on: U-118-MG; assay: Antitumor activity against human U118MG cells xenografted in Bar b/c nude mouse assessed as reduction in tumor growth at 50 mg/kg, ip adminstered twice weekly for 3 weeks and measured every 3 days for 20 days by caliper method; format: functional, organism-based
[18] = tested on: Mus musculus; assay: Reduction in vimentin protein expression in tumor of siPKM2-treated Bar b/c nude mouse xenografted with human U118MG cells at 50 mg/kg, ip adminstered twice weekly for 3 weeks and measured after 20 days by immunohistochemical analysis; format: functional, organism-based
[19] = tested on: Mus musculus; assay: Reduction in phosphorylated STAT3 expression in tumor of siPKM2-treated Bar b/c nude mouse xenografted with human U118MG cells at 50 mg/kg, ip adminstered twice weekly for 3 weeks and measured after 20 days by immunohistochemical analysis; format: functional, organism-based
[20] = tested on: Mus musculus; assay: Reduction in Bcl2 protein expression in tumor of siPKM2-treated Bar b/c nude mouse xenografted with human U118MG cells at 50 mg/kg, ip adminstered twice weekly for 3 weeks and measured after 20 days by immunohistochemical analysis; format: functional, organism-based
[21] = tested on: Mus musculus; assay: Reduction in Bcl2 protein expression in tumor of Bar b/c nude mouse xenografted with human U118MG cells at 50 mg/kg, ip adminstered every 3 days for 3 weeks and measured after 20 days by Western blot analysis; format: functional, organism-based
[22] = tested on: Mus musculus; assay: Reduction in phosphorylated STAT3 expression in tumor of Bar b/c nude mouse xenografted with human U118MG cells at 50 mg/kg, ip adminstered twice weekly for 3 weeks and measured after 20 days by immunohistochemical analysis; format: functional, organism-based
[23] = tested on: Mus musculus; assay: Reduction in vimentin protein expression in tumor of Bar b/c nude mouse xenografted with human U118MG cells at 50 mg/kg, ip adminstered twice weekly for 3 weeks and measured after 20 days by immunohistochemical analysis; format: functional, organism-based
[24] = tested on: Mus musculus; assay: Reduction in vimentin protein expression in tumor of Bar b/c nude mouse xenografted with human U118MG cells at 50 mg/kg, ip adminstered every 3 days for 3 weeks and measured after 20 days by Western blot analysis; format: functional, organism-based
[25] = tested on: Mus musculus; assay: Increase in bax protein expression in tumor of Bar b/c nude mouse xenografted with human U118MG cells at 50 mg/kg, ip adminstered twice weekly for 3 weeks and measured after 20 days by immunohistochemical analysis; format: functional, organism-based
[26] = tested on: U-118-MG; assay: Antitumor activity against human U118MG cells xenografted in siPKM2-treated Bar b/c nude mouse assessed as tumor growth at 50 mg/kg, ip adminstered twice weekly for 3 weeks measured every 3 days for 20 days by caliper method; format: functional, organism-based
[27] = tested on: Mus musculus; assay: Increase in E-cadherin protein expression in tumor of Bar b/c nude mouse xenografted with human U118MG cells at 50 mg/kg, ip adminstered every 3 days for 3 weeks and measured after 20 days by Western blot analysis; format: functional, organism-based
[28] = tested on: Mus musculus; assay: Reduction in Bcl2 protein expression in tumor of Bar b/c nude mouse xenografted with human U118MG cells at 50 mg/kg, ip adminstered twice weekly for 3 weeks and measured after 20 days by immunohistochemical analysis; format: functional, organism-based
[29] = tested on: Mus musculus; assay: Increase in E-cadherin gene expression in tumor of Bar b/c nude mouse xenografted with human U118MG cells at 50 mg/kg, ip adminstered every 3 days for 3 weeks; format: functional, organism-based
[30] = Toxicity in Bar b/c nude mouse xenografted with human U118MG cells assessed as effect on body weight at 50 mg/kg, ip adminstered twice weekly for 3 weeks and measured every 3 days for 20 days; format: organism-based; conditions: in vivo, 480 h
[31] = tested on: Mus musculus; assay: Increase in bax protein expression in tumor of siPKM2-treated Bar b/c nude mouse xenografted with human U118MG cells at 50 mg/kg, ip adminstered twice weekly for 3 weeks and measured after 20 days by immunohistochemical analysis; format: functional, organism-based

C=C1C(=O)O[C@@H]2C3O[C@]3(C)CC/C=C(\C)CC[C@@H]12 (stereo not given in full)
IC50 [1]: 9.52 µM
IC50 [2]: 5.45 µM
IC50 [3]: 7.14 µM
IC50 [4]: 12.6 µM
IC50 [5]: 17.1 µM
IC50 [6]: 4.38 µM
IC50 [7]: 5.94 µM

C=C1C(=O)O[C@H]2[C@H]1CC/C(C(=O)OCCOCCOCCOCCOCCOCCOCCOCCOC(=O)/C1=C/CC[C@@]3(C)O[C@H]3[C@H]3OC(=O)C(=C)[C@@H]3CC1)=C\CC[C@@]1(C)O[C@@H]21
IC50 [1]: 25.7 µM
IC50 [2]: 4.98 µM
IC50 [3]: 22 µM
IC50 [4]: > 50 µM
AC50 [8]: 0.065 µM
IC50 [5]: > 50 µM
IC50 [6]: 12.9 µM
IC50 [7]: 11.8 µM
fold change (FC) [9]: > 2

C=C1C(=O)O[C@H]2[C@H]1CC/C(C(=O)OCCOCCOCCOCCOCCOC(=O)/C1=C/CC[C@@]3(C)O[C@H]3[C@H]3OC(=O)C(=C)[C@@H]3CC1)=C\CC[C@@]1(C)O[C@@H]21
IC50 [1]: 18.5 µM
IC50 [2]: 4.82 µM
IC50 [3]: 18.8 µM
IC50 [4]: 14.1 µM
IC50 [5]: 21 µM
IC50 [6]: 10.6 µM
IC50 [7]: 7.5 µM
fold change (FC) [9]: > 2

C=C1C(=O)O[C@H]2[C@H]1CC/C(C(=O)OCCOCCOCCOCCOCCOCCOCCOCCOCCOCCOCCOCCOCCOCCOCCOCCOCCOCCOCCOCCOCCOCCOCCOCCOC(=O)/C1=C/CC[C@@]3(C)O[C@H]3[C@H]3OC(=O)C(=C)[C@@H]3CC1)=C\CC[C@@]1(C)O[C@@H]21
IC50 [1]: > 50 µM
IC50 [2]: > 50 µM
IC50 [3]: > 50 µM
IC50 [4]: > 50 µM
IC50 [5]: > 50 µM
IC50 [6]: > 50 µM
IC50 [7]: > 50 µM
fold change (FC) [9]: > 2

C=C1C(=O)O[C@H]2[C@H]1CC/C(C(=O)OCCOCCOCCOCCOCCOCCOC(=O)/C1=C/CC[C@@]3(C)O[C@H]3[C@H]3OC(=O)C(=C)[C@@H]3CC1)=C\CC[C@@]1(C)O[C@@H]21
IC50 [1]: > 50 µM
IC50 [2]: > 50 µM
IC50 [3]: > 50 µM
IC50 [4]: > 50 µM
IC50 [5]: > 50 µM
IC50 [6]: 15.1 µM
IC50 [7]: 10.6 µM
fold change (FC) [9]: > 2

C=C1C(=O)O[C@H]2[C@H]1CC/C(C(=O)OCCOCCOCCOCCOC(=O)/C1=C/CC[C@@]3(C)O[C@H]3[C@H]3OC(=O)C(=C)[C@@H]3CC1)=C\CC[C@@]1(C)O[C@@H]21
IC50 [1]: 16.3 µM
IC50 [2]: 4.26 µM
IC50 [3]: 16.1 µM
IC50 [4]: 16.6 µM
IC50 [5]: 20.1 µM
IC50 [6]: 9.13 µM
IC50 [7]: 7.97 µM
fold change (FC) [9]: > 2

CN(C)C[C@@H]1C(=O)O[C@H]2[C@H]1CC/C(C(=O)OCCOCCOC(=O)/C1=C/CC[C@@]3(C)O[C@H]3[C@H]3OC(=O)[C@@H](CN(C)C)[C@@H]3CC1)=C\CC[C@@]1(C)O[C@@H]21.O=C(O)/C=C/C(=O)O.O=C(O)/C=C/C(=O)O
inhibition [10]: Active
inhibition [11]: Active
inhibition [12]: Active
Activity [13]: Active
Activity [14]: inactive
Activity [15]: Active
Activity [16]: Active
Activity [17]: Active
inhibition [18]: inactive
inhibition [19]: inactive
inhibition [20]: inactive
inhibition [21]: Active
inhibition [22]: Active
inhibition [23]: Active
inhibition [24]: Active
Activity [25]: Active
Activity [26]: inactive
Activity [27]: Active
inhibition [28]: Active
Activity [29]: Active
Activity [30]: Non-Toxic
Activity [31]: inactive
